Laboratory results as given in PubChem BioAssay (NCI).
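Values below derive from 48-hour exposures of cells grown in 96-well plates, with endpoints linearly interpolated between the two concentrations bracketing the appropriate inhibition level. The concentration for 50% growth inhibition is given as GI50. TGI denotes the concentration required for complete inhibition of growth.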

Tests used:
Experiment in all cases: inhibition of tumour cell growth, NCI panel, 48 h
OVCAR-5 ovarian = tested on: OVCAR-5 ovarian
DU-145 prostate = tested on: DU-145 prostate
NCI-H460 lung = tested on: NCI-H460 lung
HCT-15 colon = tested on: HCT-15 colon
UO-31 renal = tested on: UO-31 renal
A498 renal = tested on: A498 renal
U251 CNS = tested on: U251 CNS
K-562 leukemia = tested on: K-562 leukemia
OVCAR-3 ovarian = tested on: OVCAR-3 ovarian
OVCAR-8 ovarian = tested on: OVCAR-8 ovarian
ACHN renal = tested on: ACHN renal
SK-MEL-28 melanoma = tested on: SK-MEL-28 melanoma
SN12C renal = tested on: SN12C renal
HCT-116 colon = tested on: HCT-116 colon
TK-10 renal = tested on: TK-10 renal
SF-539 CNS = tested on: SF-539 CNS
MDA-MB-435 = tested on: MDA-MB-435
KM12 colon = tested on: KM12 colon
SR leukemia = tested on: SR leukemia
COLO 205 colon = tested on: COLO 205 colon
NCI-H522 lung = tested on: NCI-H522 lung
UACC-62 melanoma = tested on: UACC-62 melanoma
SNB-19 CNS = tested on: SNB-19 CNS
MCF7 breast = tested on: MCF7 breast
SW-620 colon = tested on: SW-620 colon
HL-60(TB) leukemia = tested on: HL-60(TB) leukemia
UACC-257 melanoma = tested on: UACC-257 melanoma
NCI-H226 lung = tested on: NCI-H226 lung

## CC1=CC(=O)C(O)C2(C)C1CC(O)C13COC4(C)C(OC(=O)C41)C(O)C23 (stereo unspecified)
OVCAR-5 ovarian
  GI50: 20.5 µM
  TGI: 78.3 µM
DU-145 prostate
  GI50: 4.36 µM
  TGI: 31.6 µM
NCI-H460 lung
  GI50: 5.2 µM
  TGI: 62.7 µM
HCT-15 colon
  GI50: 4.47 µM
  TGI: 23.4 µM
UO-31 renal
  GI50: 10.7 µM
  TGI: 42.7 µM
A498 renal
  GI50: 18 µM
  TGI: 54.4 µM
U251 CNS
  GI50: 6.1 µM
  TGI: 31.6 µM
K-562 leukemia
  GI50: 5.48 µM
  TGI: > 100 µM
OVCAR-3 ovarian
  GI50: 19.5 µM
  TGI: 62.9 µM
OVCAR-8 ovarian
  GI50: 5.57 µM
  TGI: 25.2 µM
ACHN renal
  GI50: 4.75 µM
  TGI: 20.3 µM
SK-MEL-28 melanoma
  GI50: 7.32 µM
  TGI: > 100 µM
SN12C renal
  GI50: 8.32 µM
  TGI: 32.7 µM
HCT-116 colon
  GI50: 4.11 µM
  TGI: 19.3 µM
TK-10 renal
  GI50: 12.1 µM
  TGI: 44.3 µM
SF-539 CNS
  GI50: 8.13 µM
  TGI: 35.5 µM
MDA-MB-435
  GI50: 6.86 µM
  TGI: 43 µM
KM12 colon
  GI50: 7.41 µM
  TGI: 33.6 µM
SR leukemia
  GI50: 0.688 µM
  TGI: 6.46 µM
COLO 205 colon
  GI50: 12.1 µM
  TGI: 77.1 µM
NCI-H522 lung
  GI50: 6.65 µM
  TGI: 30.5 µM
UACC-62 melanoma
  GI50: 8.02 µM
  TGI: 32.3 µM
SNB-19 CNS
  GI50: 7.94 µM
  TGI: > 100 µM
MCF7 breast
  GI50: 3.95 µM
  TGI: 21.9 µM
SW-620 colon
  GI50: 5.41 µM
  TGI: 89.9 µM
HL-60(TB) leukemia
  GI50: 4.24 µM
  TGI: > 100 µM
UACC-257 melanoma
  GI50: 9.57 µM
  TGI: 38.8 µM
NCI-H226 lung
  GI50: 3.48 µM
  TGI: 21.2 µM
